Source: the supplement of paper PMC11451515

How the values were obtained:
NOMO1 [1] = assay: AUC of viability dose-response curve (% viability x log10 dose units); higher = less sensitive; settings: 48 h
Summary of the method: (§1)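 In 1536-well plates, leukemia cells adapted to each medium (500 or 1000 cells/well) were exposed for 48 h at 37°C to library compounds in DMSO across 11 threefold doses, 47 μM down to 0.79 nM. Viability was read by CellTiter-Glo One luminescence and normalised per plate to DMSO and cell-free wells. A four-parameter log-logistic fit over log10 doses was integrated by trapezoidal rule. This yielded the area under the curve, with over-full-viability curves scaled and quality-control failures dropped.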

P12-Ichikawa [2] = assay: as above; settings: 48 h
Summary of the method: as §1

SEM cells [3] = assay: as above; settings: 48 h
Summary of the method: as §1

NOMO1 [4] = assay: cell viability relative to DMSO control; higher = less cytotoxic; settings: 48 h
Summary of the method: (§2)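 Viability is a per-plate percentage relative to DMSO wells, with cell-free wells as background. CellTiter-Glo One luminescence was read after 48 h at 37°C on 1536-well plates (5 μl) of NOMO1 or SEM (500 cells/well) or P12-Ichikawa (1000 cells/well) leukemia cells. The cells had been adapted for at least four passages in each medium and pin-dosed with library compounds in DMSO from 47 μM to 0.79 nM in 11 threefold steps.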

SEM cells [5] = assay: as above; settings: 48 h
Summary of the method: as §2

P12-Ichikawa [6] = assay: as above; settings: HPLM + 10% dialyzed FBS, 48 h
Summary of the method: as §2

NC(=O)c1ccc2[nH]ccc2c1
AUC of viability dose-response curve
Settings | NOMO1 [1] | P12-Ichikawa [2] | SEM cells [3]
HPLM + 10% dialyzed FBS | 440 | 440 | 444
RPMI 5 mM glucose + 10% FBS | 464 | 442 | 312
RPMI 5 mM glucose + 10% dialyzed FBS | 460 | 430 | 438

OC(Cn1cncn1)(Cn1cncn1)c1ccc(F)cc1F
AUC of viability dose-response curve
Settings | NOMO1 [1] | P12-Ichikawa [2] | SEM cells [3]
HPLM + 10% dialyzed FBS | 431 | 448 | 463
RPMI 5 mM glucose + 10% FBS | 449 | 448 | 451
RPMI 5 mM glucose + 10% dialyzed FBS | 449 | 462 | 467

Cc1cccc(Nc2nc(-c3ccncc3)cs2)c1
cell viability [%]
Settings | NOMO1 [4] | SEM cells [5]
HPLM + 10% dialyzed FBS, 0.000781 µM | 96.3 | 86.5
HPLM + 10% dialyzed FBS, 0.00234 µM | 138 | 115
HPLM + 10% dialyzed FBS, 0.00702 µM | 121 | 88.8
HPLM + 10% dialyzed FBS, 0.0211 µM | 142 | 98.3
HPLM + 10% dialyzed FBS, 0.0632 µM | 137 | 99.5
HPLM + 10% dialyzed FBS, 0.19 µM | 140 | 126
HPLM + 10% dialyzed FBS, 0.569 µM | 111 | 104
HPLM + 10% dialyzed FBS, 1.71 µM | 145 | 117
HPLM + 10% dialyzed FBS, 5.12 µM | 142 | 118
HPLM + 10% dialyzed FBS, 15.4 µM | 136 | 112
HPLM + 10% dialyzed FBS, 46.1 µM | 134 | 59.5
RPMI 5 mM glucose + 10% dialyzed FBS, 0.000781 µM | 122 | 92.4
RPMI 5 mM glucose + 10% dialyzed FBS, 0.00234 µM | 121 | 141
RPMI 5 mM glucose + 10% dialyzed FBS, 0.00702 µM | 128 | 84
RPMI 5 mM glucose + 10% dialyzed FBS, 0.0211 µM | 123 | 116
RPMI 5 mM glucose + 10% dialyzed FBS, 0.0632 µM | 125 | 109
RPMI 5 mM glucose + 10% dialyzed FBS, 0.19 µM | 135 | 125
RPMI 5 mM glucose + 10% dialyzed FBS, 0.569 µM | 134 | 134
RPMI 5 mM glucose + 10% dialyzed FBS, 1.71 µM | 129 | 130
RPMI 5 mM glucose + 10% dialyzed FBS, 5.12 µM | 128 | 123
RPMI 5 mM glucose + 10% dialyzed FBS, 15.4 µM | 134 | 96.3
RPMI 5 mM glucose + 10% dialyzed FBS, 46.1 µM | 107 | 46.2

AUC of viability dose-response curve
Settings | NOMO1 [1] | P12-Ichikawa [2] | SEM cells [3]
HPLM + 10% dialyzed FBS | 442 | 470 | 466
RPMI 5 mM glucose + 10% FBS | 466 | 469 | 464
RPMI 5 mM glucose + 10% dialyzed FBS | 473 | 465 | 454

NC/1=N/[C@]2(COC[C@H]2CS1)C3=CC(=CC=C3F)NC(=O)C4=NC=C(F)C=C4
cell viability [%], SEM cells [5]
Settings | HPLM + 10% dialyzed FBS | RPMI 5 mM glucose + 10% FBS
0.000781 µM | 90.8 | 119
0.00234 µM | 111 | 120
0.00702 µM | 131 | 129
0.0211 µM | 127 | 135
0.0632 µM | 132 | 138
0.19 µM | 140 | 149
0.569 µM | 130 | 127
1.71 µM | 135 | 141
5.12 µM | 136 | 155
15.4 µM | 147 | 29
46.1 µM | 110 | 7.7

AUC of viability dose-response curve
Settings | NOMO1 [1] | P12-Ichikawa [2] | SEM cells [3]
HPLM + 10% dialyzed FBS | 324 | 350 | 461
RPMI 5 mM glucose + 10% FBS | 302 | 348 | 417
RPMI 5 mM glucose + 10% dialyzed FBS | 313 | 374 | 471

CO[C@@H]1COCC[C@@H]1N[C@@H]1CC[C@@](C(=O)N2CCc3ncc(C(F)(F)F)cc3C2)(C(C)C)C1
cell viability [%], HPLM + 10% dialyzed FBS
Settings | NOMO1 [4] | SEM cells [5]
0.000781 µM | 107 | 97.1
0.00234 µM | 133 | 107
0.00702 µM | 121 | 110
0.0211 µM | 142 | 112
0.0632 µM | 157 | 111
0.19 µM | 141 | 113
0.569 µM | 132 | 114
1.71 µM | 127 | 102
5.12 µM | 143 | 119
15.4 µM | 151 | 103
46.1 µM | 96.6 | 68.1

Settings | AUC of viability dose-response curve | cell viability [%]
NOMO1 [1], HPLM + 10% dialyzed FBS | 472 | –
NOMO1 [1], RPMI 5 mM glucose + 10% FBS | 466 | –
NOMO1 [1], RPMI 5 mM glucose + 10% dialyzed FBS | 472 | –
P12-Ichikawa [6], 0.000781 µM | – | 98
P12-Ichikawa [6], 0.00234 µM | – | 109
P12-Ichikawa [6], 0.00702 µM | – | 123
P12-Ichikawa [6], 0.0211 µM | – | 119
P12-Ichikawa [6], 0.0632 µM | – | 113
P12-Ichikawa [6], 0.19 µM | – | 119
P12-Ichikawa [6], 0.569 µM | – | 118
P12-Ichikawa [6], 1.71 µM | – | 126
P12-Ichikawa [6], 5.12 µM | – | 127
P12-Ichikawa [6], 15.4 µM | – | 123
P12-Ichikawa [6], 46.1 µM | – | 47.4
SEM cells [3], HPLM + 10% dialyzed FBS | 466 | –
SEM cells [3], RPMI 5 mM glucose + 10% FBS | 458 | –
SEM cells [3], RPMI 5 mM glucose + 10% dialyzed FBS | 467 | –

O=[S+]([O-])(CC1CS1)c1ccc(Oc2ccccc2)cc1 (stereo not given)
AUC of viability dose-response curve
Settings | NOMO1 [1] | P12-Ichikawa [2] | SEM cells [3]
HPLM + 10% dialyzed FBS | 448 | 462 | 451
RPMI 5 mM glucose + 10% FBS | 461 | 445 | 437
RPMI 5 mM glucose + 10% dialyzed FBS | 435 | 447 | 450

CO[C@H]1/C=C\C=C(\C)C(=O)NC2=CC(=O)C(NCCN(C)C)=C(C[C@@H](C)C[C@H](OC)[C@H](O)[C@@H](C)/C=C(/C)[C@@H]1OC(N)=O)C2=O
SEM cells [5], HPLM + 10% dialyzed FBS
Settings | cell viability [%]
0.000781 µM | 108
0.00234 µM | 124
0.00702 µM | 118
0.0211 µM | 120
0.0632 µM | 122
0.19 µM | 60.8
0.569 µM | 31.6
1.71 µM | 25.3
5.12 µM | 25.5
15.4 µM | 23
46.1 µM | 6.44

AUC of viability dose-response curve
Settings | NOMO1 [1] | P12-Ichikawa [2] | SEM cells [3]
HPLM + 10% dialyzed FBS | 305 | 362 | 279
RPMI 5 mM glucose + 10% FBS | 308 | 328 | 274
RPMI 5 mM glucose + 10% dialyzed FBS | 309 | 333 | 268

Fc1ccc([C@@H]2CCNC[C@H]2COc2ccc3c(c2)OCO3)cc1
SEM cells [5], HPLM + 10% dialyzed FBS
Settings | cell viability [%]
0.000781 µM | 119
0.00234 µM | 124
0.00702 µM | 130
0.0211 µM | 141
0.0632 µM | 122
0.19 µM | 123
0.569 µM | 125
1.71 µM | 109
5.12 µM | 103
15.4 µM | 58.9
46.1 µM | 24.7

AUC of viability dose-response curve
Settings | NOMO1 [1] | P12-Ichikawa [2] | SEM cells [3]
HPLM + 10% dialyzed FBS | 447 | 396 | 417
RPMI 5 mM glucose + 10% FBS | 463 | 337 | 407
RPMI 5 mM glucose + 10% dialyzed FBS | 455 | 393 | 416
